In general, IC50 refers to the concentration that gives 50% inhibition.

For two molecules, IC50 results are on record in BindingDB's records for doi:10.1016/j.ejmech.2014.08.060 (European Molecular Biology Laboratory, 2014).

Experiment [1] deals with Protein tyrosine phosphatase type IVA 3 (Homo sapiens, UniProt O75365). The experiment can be described thus: Inhibition of PRL3 (unknown origin) using DiFMUP as fluorogenic phosphate substrate assessed as DiFMUP dephosphorylation.
Experiment [2] concerns the target T1, Protein tyrosine phosphatase type IVA 1 (Homo sapiens, UniProt Q93096).
T1 sequence (Q93096 whole entry): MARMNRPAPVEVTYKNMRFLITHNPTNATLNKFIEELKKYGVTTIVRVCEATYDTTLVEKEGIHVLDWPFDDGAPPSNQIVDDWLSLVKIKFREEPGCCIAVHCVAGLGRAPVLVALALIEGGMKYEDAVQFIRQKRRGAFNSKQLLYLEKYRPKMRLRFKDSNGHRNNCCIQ
The experiment can be described thus: Inhibition of PRL1 (unknown origin) using DiFMUP as fluorogenic phosphate substrate assessed as DiFMUP dephosphorylation.

The target in experiment [3] is T2, Protein tyrosine phosphatase type IVA 2 (Homo sapiens, UniProt Q12974).
T2 sequence (Q12974 whole entry): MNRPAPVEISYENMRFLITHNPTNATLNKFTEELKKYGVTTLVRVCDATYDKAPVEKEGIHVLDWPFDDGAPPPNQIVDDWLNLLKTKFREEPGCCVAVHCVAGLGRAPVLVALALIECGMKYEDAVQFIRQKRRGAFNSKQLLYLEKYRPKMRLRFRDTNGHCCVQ
Put plainly: Inhibition of PRL2 (unknown origin) using DiFMUP as fluorogenic phosphate substrate assessed as DiFMUP dephosphorylation.

Sequence of Protein tyrosine phosphatase type IVA 3 (O75365 whole entry): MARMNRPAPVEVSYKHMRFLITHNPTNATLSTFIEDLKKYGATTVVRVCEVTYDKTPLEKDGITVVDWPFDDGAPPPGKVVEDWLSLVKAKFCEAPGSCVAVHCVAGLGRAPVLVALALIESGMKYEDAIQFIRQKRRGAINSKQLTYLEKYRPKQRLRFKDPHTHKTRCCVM

With `O=C(O)c1ccc[n+]2c([O-])c(-c3ccccc3)sc12`, the IC50 came out at 102 µM in experiment [1], 209 µM in experiment [2] and 188 µM in experiment [3].
Consider `O=C1CSC(=S)N1` [CHEBI:8830], for which the IC50 in experiment [2] worked out at 35 µM; in experiment [3], 188 µM.
